# Assay results as given in patent US8952024B2, “Herbicidal pyrimidone derivatives” (E I du Pont de Nemours and Company, priority 2009, dated 2015).
# Columns and labels:
# Type in all cases: in vivo
# [1] = tested on: Italian ryegrass (Lolium multiflorum); experiment: Test B pre-/postemergence plant response
# How it was run: (§1)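 Seeds were sown in loam soil/sand blend and treated preemergence with compound in non-phytotoxic solvent mixture containing surfactant; postemergence sprays, same formulation, went onto plants 2 to 18 cm (1- to 4-leaf stage) in peat-based planting medium. Greenhouse 13 to 15 days, then visual rating versus untreated controls, 0 (no effect) to 100 (complete control).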
# [2] = tested on: bermudagrass (Cynodon dactylon); experiment: Test B pre-/postemergence plant response
# How it was run: as §1
# [3] = tested on: galium (catchweed bedstraw, Galium aparine); experiment: Test B pre-/postemergence plant response; conditions: Preemergence; for Galium plant response rating: 125 g ai/ha
# How it was run: as §1
# [4] = tested on: lambsquarters (Chenopodium album); experiment: Test B pre-/postemergence plant response
# How it was run: as §1
# [5] = tested on: nightshade (eastern black nightshade, Solanum ptycanthum); experiment: Test B pre-/postemergence plant response; conditions: Preemergence; for Nightshade plant response rating: 125 g ai/ha
# How it was run: as §1
# [6] = tested on: pigweed (Amaranthus retroflexus); experiment: Test B pre-/postemergence plant response
# How it was run: as §1
# [7] = tested on: ragweed (common ragweed, Ambrosia elatior); experiment: Test B pre-/postemergence plant response
# How it was run: as §1
# [8] = tested on: sunflower (common oilseed sunflower, Helianthus annuus); experiment: Test B pre-/postemergence plant response; conditions: Preemergence; for Sunflower plant response rating: 125 g ai/ha
# How it was run: as §1
# [9] = tested on: wheat (Triticum aestivum); experiment: Test B pre-/postemergence plant response
# How it was run: as §1
# [10] = tested on: canarygrass (Phalaris minor); experiment: Test B postemergence plant response; conditions: Postemergence; for Canarygrass plant response rating: 250 g ai/ha, scale 0 to 100
# How it was run: (§2)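 Plants grown in peat/vermiculite medium were sprayed postemergence at 2–18 cm height (1- to 4-leaf stage). After 13–15 days in the greenhouse, response was rated visually against untreated controls on a 0–100 scale (0 no effect, 100 complete control).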
# [11] = tested on: chickweed (Stellaria media); experiment: Test B postemergence plant response; conditions: Postemergence; for Chickweed plant response rating: 250 g ai/ha, scale 0 to 100
# How it was run: as §2
# [12] = tested on: windgrass (Apera spica-venti); experiment: Test B postemergence plant response; conditions: Postemergence; for Windgrass plant response rating: 250 g ai/ha, scale 0 to 100
# How it was run: as §2
# [13] = tested on: winter barley (Hordeum vulgare); experiment: Test B postemergence plant response; conditions: Postemergence; for Barley plant response rating: 250 g ai/ha, scale 0 to 100
# How it was run: as §2
# [14] = tested on: goosegrass (Eleusine indica); experiment: Test B pre-/postemergence plant response; conditions: Preemergence, 62 g ai/ha; scale 0 to 100, 0 no effect, 100 complete control
# [15] = 250 g ai/ha, Preemergence, 0 to 100 scale
# [16] = Postemergence, 31 g ai/ha, scale 0 to 100 (0 no effect, 100 complete control)
# [17] = Postemergence, 62 g ai/ha, scale 0 (no effect) to 100 (complete control), 13 to 15 days
# [18] = Postemergence, 125 g ai/ha, visual rating after 13 to 15 days, scale 0 (no effect) to 100 (complete control)
# [19] = Postemergence, 250 g ai/ha, scale 0 to 100
# [20] = Preemergence, 31 g ai/ha, scale 0 to 100 (0 no effect, 100 complete control)
# [21] = Preemergence, 62 g ai/ha, scale 0 to 100, 0 no effect, 100 complete control
# [22] = Preemergence, 125 g ai/ha, 0 to 100 scale
# [23] = Postemergence, 125 g ai/ha, scale 0 to 100 (0 no effect, 100 complete control), 13 to 15 days
# [24] = 31 g ai/ha, scale 0 to 100 (0 no effect, 100 complete control)
# [25] = 62 g ai/ha, scale 0 to 100, 0 no effect, 100 complete control
# [26] = 62 g ai/ha, scale 0 (no effect) to 100 (complete control), 13 to 15 days
# [27] = 125 g ai/ha, visual rating after 13 to 15 days, scale 0 (no effect) to 100 (complete control)
# [28] = 125 g ai/ha, scale 0 to 100 (0 no effect, 100 complete control), 13 to 15 days
substance,measurement,setting,value
5-[(1-ethyl-5-hydroxy-1H-pyrazol-4-yl)carbonyl]-2-phenyl-3-(phenylmethyl)-4(3H)-pyrimidinone [Compound 20],"Plant response rating, Ryegrass, Italian",[1]; [15],0
same,"Plant response rating, Ryegrass, Italian",[1]; [16],0
same,"Plant response rating, Ryegrass, Italian",[1]; [17],0
same,"Plant response rating, Ryegrass, Italian",[1]; [18],5
same,"Ryegrass, Italian plant response rating",[1]; [19],5
same,"Plant response rating, Ryegrass, Italian",[1]; [20],0
same,"Plant response rating, Ryegrass, Italian",[1]; [21],0
same,"Ryegrass, Italian plant response rating",[1]; [22],0
same,"Plant response rating, Bermudagrass",[2]; [15],90
same,"Plant response rating, Bermudagrass",[2]; [16],15
same,"Plant response rating, Bermudagrass",[2]; [17],25
same,"Plant response rating, Bermudagrass",[2]; [23],70
same,Bermudagrass plant response rating,[2]; [19],80
same,"Plant response rating, Bermudagrass",[2]; [20],10
same,"Plant response rating, Bermudagrass",[2]; [21],70
same,Bermudagrass plant response rating,[2]; [22],80
same,"Plant response rating, Galium","[3]; 250 g ai/ha, 0 to 100 scale",50
same,"Plant response rating, Galium",[3]; [24],0
same,"Plant response rating, Galium",[3]; [25],5
same,Galium plant response rating,[3]; 0 to 100 scale,30
same,"Plant response rating, Lambsquarters",[4]; [15],100
same,"Plant response rating, Lambsquarters",[4]; [16],85
same,"Plant response rating, Lambsquarters",[4]; [17],95
same,"Plant response rating, Lambsquarters",[4]; [18],98
same,Lambsquarters plant response rating,[4]; [19],100
same,"Plant response rating, Lambsquarters",[4]; [20],100
same,Lambsquarters plant response rating,[4]; [22],100
same,"Plant response rating, Nightshade","[5]; 250 g ai/ha, 0 to 100 scale",100
same,"Plant response rating, Nightshade",[5]; [24],50
same,Nightshade plant response rating,[5]; 0 to 100 scale,98
same,"Plant response rating, Pigweed",[6]; [15],95
same,"Plant response rating, Pigweed",[6]; [16],75
same,"Plant response rating, Pigweed",[6]; [17],90
same,"Plant response rating, Pigweed",[6]; [18],100
same,Pigweed plant response rating,[6]; [19],100
same,"Plant response rating, Pigweed",[6]; [20],85
same,Pigweed plant response rating,[6]; [22],90
same,"Plant response rating, Ragweed",[7]; [15],90
same,"Plant response rating, Ragweed",[7]; [16],80
same,"Plant response rating, Ragweed",[7]; [17],85
same,"Plant response rating, Ragweed",[7]; [18],98
same,Ragweed plant response rating,[7]; [19],100
same,"Plant response rating, Ragweed",[7]; [20],65
same,"Plant response rating, Ragweed",[7]; [21],65
same,Ragweed plant response rating,[7]; [22],90
same,"Plant response rating, Sunflower","[8]; 250 g ai/ha, 0 to 100 scale",85
same,"Plant response rating, Sunflower",[8]; [24],50
same,"Plant response rating, Sunflower",[8]; [25],70
same,Sunflower plant response rating,[8]; 0 to 100 scale,70
same,"Plant response rating, Wheat",[9]; [15],0
same,"Plant response rating, Wheat",[9]; [16],0
same,"Plant response rating, Wheat",[9]; [17],0
same,"Plant response rating, Wheat",[9]; [18],10
same,Wheat plant response rating,[9]; [19],30
same,"Plant response rating, Wheat",[9]; [20],0
same,"Plant response rating, Wheat",[9]; [21],0
same,Wheat plant response rating,[9]; [22],0
same,"Plant response rating, Canarygrass",[10]; [24],0
same,"Plant response rating, Canarygrass",[10]; [26],0
same,"Plant response rating, Canarygrass",[10]; [27],0
same,Canarygrass plant response rating,[10],5
same,"Plant response rating, Chickweed",[11]; [24],90
same,"Plant response rating, Chickweed",[11]; [26],98
same,"Plant response rating, Chickweed",[11]; [27],98
same,Chickweed plant response rating,[11],100
same,"Plant response rating, Windgrass",[12]; [24],0
same,"Plant response rating, Windgrass",[12]; [26],0
same,"Plant response rating, Windgrass",[12]; [27],0
same,Windgrass plant response rating,[12],5
same,"Plant response rating, Barley",[13]; [24],0
same,"Plant response rating, Barley",[13]; [26],0
same,"Plant response rating, Barley",[13]; [28],0
same,Barley plant response rating,[13],0
same,"Plant response rating, Goosegrass",[14],70
5-[(2-hydroxy-6-oxo-1-cyclohexen-1-yl)carbonyl]-3-(2-methoxyethyl)-2-(3-thienyl)-4(3H)-pyrimidinone [Compound 97],"Plant response rating, Ryegrass, Italian",[1]; [15],0
same,"Plant response rating, Ryegrass, Italian",[1]; [16],0
same,"Plant response rating, Ryegrass, Italian",[1]; [17],0
same,"Plant response rating, Ryegrass, Italian",[1]; [18],0
same,"Ryegrass, Italian plant response rating",[1]; [19],20
same,"Plant response rating, Ryegrass, Italian",[1]; [20],0
same,"Plant response rating, Ryegrass, Italian",[1]; [21],0
same,"Ryegrass, Italian plant response rating",[1]; [22],0
same,"Plant response rating, Bermudagrass",[2]; [15],100
same,"Plant response rating, Bermudagrass",[2]; [16],70
same,"Plant response rating, Bermudagrass",[2]; [17],75
same,"Plant response rating, Bermudagrass",[2]; [23],90
same,Bermudagrass plant response rating,[2]; [19],95
same,"Plant response rating, Bermudagrass",[2]; [20],45
same,"Plant response rating, Bermudagrass",[2]; [21],80
same,Bermudagrass plant response rating,[2]; [22],100
same,"Plant response rating, Galium","[3]; 250 g ai/ha, 0 to 100 scale",85
same,"Plant response rating, Galium",[3]; [24],0
same,"Plant response rating, Galium",[3]; [25],10
same,Galium plant response rating,[3]; 0 to 100 scale,85
same,"Plant response rating, Lambsquarters",[4]; [15],100
same,"Plant response rating, Lambsquarters",[4]; [16],80
same,"Plant response rating, Lambsquarters",[4]; [17],80
same,"Plant response rating, Lambsquarters",[4]; [18],90
same,Lambsquarters plant response rating,[4]; [19],95
same,"Plant response rating, Lambsquarters",[4]; [20],100
same,"Plant response rating, Lambsquarters",[4]; [21],100
same,Lambsquarters plant response rating,[4]; [22],100
same,"Plant response rating, Nightshade","[5]; 250 g ai/ha, 0 to 100 scale",100
same,"Plant response rating, Nightshade",[5]; [24],100
same,"Plant response rating, Nightshade",[5]; [25],100
same,Nightshade plant response rating,[5]; 0 to 100 scale,100
same,"Plant response rating, Pigweed",[6]; [15],100
same,"Plant response rating, Pigweed",[6]; [16],85
same,"Plant response rating, Pigweed",[6]; [17],85
same,"Plant response rating, Pigweed",[6]; [18],95
same,Pigweed plant response rating,[6]; [19],100
same,"Plant response rating, Pigweed",[6]; [20],100
same,"Plant response rating, Pigweed",[6]; [21],100
same,Pigweed plant response rating,[6]; [22],100
same,"Plant response rating, Ragweed",[7]; [15],100
same,"Plant response rating, Ragweed",[7]; [16],75
same,"Plant response rating, Ragweed",[7]; [17],80
same,"Plant response rating, Ragweed",[7]; [18],90
same,Ragweed plant response rating,[7]; [19],98
same,"Plant response rating, Ragweed",[7]; [20],98
same,"Plant response rating, Ragweed",[7]; [21],100
same,Ragweed plant response rating,[7]; [22],100
same,"Plant response rating, Sunflower","[8]; 250 g ai/ha, 0 to 100 scale",98
same,"Plant response rating, Sunflower",[8]; [24],0
same,"Plant response rating, Sunflower",[8]; [25],80
same,Sunflower plant response rating,[8]; 0 to 100 scale,95
same,"Plant response rating, Wheat",[9]; [15],5
same,"Plant response rating, Wheat",[9]; [16],0
same,"Plant response rating, Wheat",[9]; [17],0
same,"Plant response rating, Wheat",[9]; [18],0
same,Wheat plant response rating,[9]; [19],5
same,"Plant response rating, Wheat",[9]; [20],0
same,Wheat plant response rating,[9]; [22],0
same,"Plant response rating, Canarygrass",[10]; [24],0
same,"Plant response rating, Canarygrass",[10]; [26],0
same,"Plant response rating, Canarygrass",[10]; [27],5
same,Canarygrass plant response rating,[10],40
same,"Plant response rating, Chickweed",[11]; [24],90
same,"Plant response rating, Chickweed",[11]; [26],95
same,"Plant response rating, Chickweed",[11]; [27],95
same,Chickweed plant response rating,[11],98
same,"Plant response rating, Windgrass",[12]; [24],5
same,"Plant response rating, Windgrass",[12]; [26],10
same,"Plant response rating, Windgrass",[12]; [27],30
same,Windgrass plant response rating,[12],40
same,"Plant response rating, Barley",[13]; [24],0
same,"Plant response rating, Barley",[13]; [26],0
same,"Plant response rating, Barley",[13]; [28],0
same,Barley plant response rating,[13],5
same,"Plant response rating, Goosegrass",[14],75
